Data published in PubChem BioAssay AID274 (DTP/NCI, 2004).
Values joined by “and” are separate entries in the source; they are usually repeats but may differ in a detail not shown here. Identical values can stand only once. Toxic doses and inconclusive results are not listed.

Tested on: BDF1 mice, Lewis lung carcinoma iv, survival T/C
Test: NCI In Vivo Anticancer Drug Screen. Data for tumor model Lewis Lung Carcinoma (intravenous) in B6D2F1 (BDF1) mice
Conditions: endpoint: median survival time, higher = longer survival
Method: The antitumor activity of compounds was measured in mice bearing transplantable tumors. Survival or tumor size were measured and the results are expressed as the measurement made in the treated group (T) divided by the measurement made in the vehicle treated control group (C). The tumor model used in this assay is Lewis Lung Carcinoma (intravenous) in B6D2F1 (BDF1) mice

[1] = dose: 4.0 mg/kg/injection, schedule: Q01DX009 (ip), vehicle: saline with Tween-80
[2] = dose: 8.0 mg/kg/injection, schedule: Q01DX009 (ip), vehicle: saline with Tween-80
[3] = dose: 0.25 mg/kg/injection, schedule: Q01DX009 (ip), vehicle: saline
[4] = dose: 100.0 mg/kg/injection, schedule: Q01DX009 (ip), vehicle: saline with Tween-80
[5] = dose: 200.0 mg/kg/injection, schedule: Q01DX009 (ip), vehicle: saline with Tween-80
[6] = dose: 12.5 mg/kg/injection, schedule: Q01DX009 (ip), vehicle: Klucel (hydroxypropylcellulose) (HPC)
[7] = dose: 25.0 mg/kg/injection, schedule: Q01DX009 (ip), vehicle: Klucel (hydroxypropylcellulose) (HPC)
[8] = dose: 100.0 mg/kg/injection, schedule: Q01DX009 (ip), vehicle: Klucel (hydroxypropylcellulose) (HPC)
[9] = dose: 200.0 mg/kg/injection, schedule: Q01DX009 (ip), vehicle: Klucel (hydroxypropylcellulose) (HPC)
[10] = dose: 25.0 mg/kg/injection, schedule: Q01DX009 (ip), vehicle: saline with Tween-80
[11] = dose: 50.0 mg/kg/injection, schedule: Q01DX009 (ip), vehicle: saline with Tween-80
[12] = dose: 12.5 mg/kg/injection, schedule: Q01DX009 (ip), vehicle: saline with Tween-80
[13] = dose: 25.0 mg/kg/injection, schedule: Q01DX009 (ip), vehicle: saline
[14] = dose: 100.0 mg/kg/injection, schedule: Q01DX009 (ip), vehicle: saline
[15] = dose: 200.0 mg/kg/injection, schedule: Q01DX009 (ip), vehicle: saline
[16] = dose: 50.0 mg/kg/injection, schedule: Q01DX009 (ip), vehicle: Klucel (hydroxypropylcellulose) (HPC)

C=C1C(=O)OCC1(C(=O)OCC)C(=O)OCC
T/C [1]: 114 % of control
T/C [2]: 120 % of control

CC(=O)O[C@@H]1C(=O)C=C(C)[C@@H]2[C@@H](OC(=O)C=C(C)C)[C@H]3OC(=O)C[C@H]4[C@@H](C)[C@@H](O)[C@]5(O)OC[C@]34[C@H]5[C@@]12C
T/C (dose: 0.12 mg/kg/injection, schedule: Q01DX009 (ip), vehicle: saline): 107 % of control
T/C [3]: 106 % of control
T/C (dose: 0.5 mg/kg/injection, schedule: Q01DX009 (ip), vehicle: saline): 102 % of control
T/C (dose: 1.0 mg/kg/injection, schedule: Q01DX009 (ip), vehicle: saline): 107 % of control

CN1C(=O)NC(c2ccc(Cl)cc2)(c2ccc(Cl)cc2)C1=O
T/C (dose: 12.5 mg/kg/injection, schedule: Q01DX009 (ip), vehicle: distilled water + Tween-80): 102 % of control
T/C (dose: 25.0 mg/kg/injection, schedule: Q01DX009 (ip), vehicle: distilled water + Tween-80): 124 % of control
T/C (dose: 50.0 mg/kg/injection, schedule: Q01DX009 (ip), vehicle: distilled water + Tween-80): 116 % of control
T/C (dose: 200.0 mg/kg/injection, schedule: Q01DX009 (ip), vehicle: distilled water + Tween-80): 105 % of control

O=C1OC(c2ccc(O)cc2)(c2ccc(Oc3ccccc3)cc2)c2ccccc21 (stereo unspecified)
T/C [4]: 105 % of control
T/C [5]: 112 % of control
T/C (dose: 400.0 mg/kg/injection, schedule: Q01DX009 (ip), vehicle: saline with Tween-80): 99 % of control

O=c1cc[nH]c(=O)[nH]1
T/C (dose: 32.0 mg/kg/injection, schedule: Q01DX009 (ip), vehicle: Klucel (hydroxypropylcellulose) (HPC)): 105 % of control
T/C (dose: 64.0 mg/kg/injection, schedule: Q01DX009 (ip), vehicle: Klucel (hydroxypropylcellulose) (HPC)): 96 % of control
T/C (dose: 128.0 mg/kg/injection, schedule: Q01DX009 (ip), vehicle: Klucel (hydroxypropylcellulose) (HPC)): 102 % of control
T/C (dose: 256.0 mg/kg/injection, schedule: Q01DX009 (ip), vehicle: Klucel (hydroxypropylcellulose) (HPC)): 86 % of control
T/C (dose: 512.0 mg/kg/injection, schedule: Q01DX009 (ip), vehicle: Klucel (hydroxypropylcellulose) (HPC)): 111 % of control

CCCCCC[C@H]([C@H](C)O)n1cnc2c(N)ncnc21
T/C (dose: 6.25 mg/kg/injection, schedule: Q01DX009 (ip), vehicle: Klucel (hydroxypropylcellulose) (HPC)): 99 % of control
T/C [6]: 104 % of control
T/C [7]: 103 % of control
T/C [8]: 96 % of control
T/C [9]: 99 % of control

CCCCCCCCCCCCCCCCCCCCCC(=O)Nc1ccn(C2OC(CO)C(O)C2O)c(=O)n1 (stereo unspecified)
T/C [10]: 94 % of control
T/C [11]: 124 % of control
T/C [4]: 113 % of control
T/C [5]: 120 % of control

O=c1[nH]c(=O)n(C2CC(O)C(CO)O2)cc1F (stereo unspecified)
T/C (dose: 72.0 mg/kg/injection, schedule: Q04DX003 (ip), vehicle: saline): 108 % of control and 113 % of control
T/C (dose: 72.0 mg/kg/injection, schedule: Q04DX006 (ip), vehicle: saline): 123 % of control
T/C (dose: 103.0 mg/kg/injection, schedule: Q04DX006 (ip), vehicle: saline): 116 % of control
T/C (dose: 210.0 mg/kg/injection, schedule: Q04DX006 (ip), vehicle: saline): 155 % of control
T/C (dose: 300.0 mg/kg/injection, schedule: Q04DX006 (ip), vehicle: saline): 96 % of control
T/C (dose: 429.0 mg/kg/injection, schedule: Q04DX003 (ip), vehicle: saline): 174 % of control

Cc1c(N)nc([C@H](CC(N)=O)NC[C@H](N)C(N)=O)nc1C(=O)N[C@H](C(=O)N[C@H](C)[C@@H](O)[C@H](C)C(=O)N[C@H](C(=O)NCCc1nc(-c2nc(C(=O)NCCC[S+](C)C)cs2)cs1)[C@@H](C)O)C(OC1OC(CO)C(O)C(O)C1OC1OC(CO)C(O)C(OC(N)=O)C1O)c1cnc[nH]1 (stereo partly specified)
T/C (dose: 2.0 mg/kg/injection, schedule: Q01DX009 (ip), vehicle: saline): 113 % of control
T/C (dose: 4.0 mg/kg/injection, schedule: Q01DX009 (ip), vehicle: saline): 115 % of control
T/C (dose: 12.0 mg/kg/injection, schedule: Q04DX003 (ip), vehicle: saline): 105 % of control and 115 % of control
T/C (dose: 18.0 mg/kg/injection, schedule: Q04DX003 (ip), vehicle: saline): 115 % of control (2×) and 116 % of control
T/C (dose: 27.0 mg/kg/injection, schedule: Q04DX003 (ip), vehicle: saline): 109 % of control
T/C (dose: 40.0 mg/kg/injection, schedule: Q04DX003 (ip), vehicle: saline): 113 % of control
T/C (dose: 60.0 mg/kg/injection, schedule: Q04DX003 (ip), vehicle: saline): 115 % of control

O[C@H](CN1CC1)[C@@H](O)CN1CC1
T/C (dose: 0.13 mg/kg/injection, schedule: Q01DX009 (ip), vehicle: saline): 111 % of control
T/C [3]: 121 % of control

Cc1cn(C2CC(O)C(CO)O2)c(=O)[nH]c1=O (stereo unspecified)
T/C [12]: 89 % of control
T/C [11]: 88 % of control
T/C [4]: 94 % of control
T/C [5]: 98 % of control

N=c1ccn2c(n1)OC1C(O)C(CO)OC12 (stereo unspecified)
T/C [13]: 104 % of control
T/C (dose: 37.5 mg/kg/injection, schedule: Q01DX009 (ip), vehicle: saline): 108 % of control
T/C (dose: 75.0 mg/kg/injection, schedule: Q01DX009 (ip), vehicle: saline): 106 % of control
T/C [14]: 112 % of control
T/C (dose: 150.0 mg/kg/injection, schedule: Q01DX009 (ip), vehicle: saline): 119 % of control
T/C (dose: 300.0 mg/kg/injection, schedule: Q01DX009 (ip), vehicle: saline): 104 % of control
T/C (dose: 600.0 mg/kg/injection, schedule: Q01DX009 (ip), vehicle: saline): 92 % of control

CSc1ccc2c(c1)C(N1CCN(C)CC1)Cc1ccccc1S2 (stereo unspecified)
T/C (dose: 1.56 mg/kg/injection, schedule: Q01DX009 (ip), vehicle: saline with Tween-80): 102 % of control

CC(C)([NH-])CO.CC(C)([NH-])CO.[Cl][Cd][Cl]
T/C (dose: 0.63 mg/kg/injection, schedule: Q01DX009 (ip), vehicle: saline with Tween-80): 97 % of control
T/C (dose: 1.25 mg/kg/injection, schedule: Q01DX009 (ip), vehicle: saline with Tween-80): 88 % of control
T/C (dose: 2.5 mg/kg/injection, schedule: Q01DX009 (ip), vehicle: saline with Tween-80): 99 % of control

CCOC(=O)C(N)CSC(=O)NC (stereo unspecified)
T/C [13]: 105 % of control
T/C (dose: 50.0 mg/kg/injection, schedule: Q01DX009 (ip), vehicle: saline): 98 % of control
T/C [14]: 96 % of control
T/C [15]: 96 % of control
T/C (dose: 400.0 mg/kg/injection, schedule: Q01DX009 (ip), vehicle: saline): 113 % of control

COC1OC(CO)C(O)C(NC(=O)N(C)N=O)C1O (stereo unspecified)
T/C (dose: 12.5 mg/kg/injection, schedule: Q01DX009 (ip), vehicle: saline): 109 % of control
T/C [13]: 108 % of control and 115 % of control
T/C [14]: 123 % of control
T/C [15]: 152 % of control

CCOC(C)C(/C=N/NC(N)=S)=NNC(N)=S (stereo unspecified)
T/C [12]: 157 % of control
T/C [10]: 95 % of control
T/C [11]: 104 % of control
T/C [5]: 114 % of control

Clc1ccc(C2SC=Cc3ccccc32)cc1 (stereo unspecified)
T/C [6]: 94 % of control
T/C [7]: 105 % of control
T/C [16]: 108 % of control
T/C [8]: 108 % of control
T/C [9]: 115 % of control
T/C (dose: 400.0 mg/kg/injection, schedule: Q01DX009 (ip), vehicle: Klucel (hydroxypropylcellulose) (HPC)): 108 % of control

O=NN(CCCl)C(=O)NC1CCC(=O)NC1=O (stereo unspecified)
T/C (dose: 0.5 mg/kg/injection, schedule: Q01DX009 (ip), vehicle: saline with Tween-80): 115 % of control
T/C (dose: 1.0 mg/kg/injection, schedule: Q01DX009 (ip), vehicle: saline with Tween-80): 103 % of control
T/C (dose: 2.0 mg/kg/injection, schedule: Q01DX009 (ip), vehicle: saline with Tween-80): 185 % of control
T/C [1]: 247 % of control
T/C [2]: 104 % of control

COC1NC(=O)NC(=O)C1=[N+]=[N-] (stereo unspecified)
T/C (dose: 2.0 mg/kg/injection, schedule: Q01DX009 (ip), vehicle: water): 96 % of control
T/C (dose: 4.0 mg/kg/injection, schedule: Q01DX009 (ip), vehicle: water): 98 % of control
T/C (dose: 8.0 mg/kg/injection, schedule: Q01DX009 (ip), vehicle: water): 100 % of control

Cc1ccc(S(=O)(=O)NC(=O)C2C(=O)CC3(CCCCC3)CC2=O)cc1
T/C [16]: 105 % of control
T/C [8]: 101 % of control
